In data set [1] the test system is C57bl/6J female mice. Kind of data set: Supplementation with L. reuteri (daily gavage) with or without risperidone in drinking water: body mass and visceral fat pads. The data set is classed as in vivo. To be noted: risperidone-treated mice, 64 days, relative to risperidone plus L. reuteri lacking reutericyclin production; Wilcoxon p<0.05.
The test system of data set [2] is C57bl/6J female mice. Description: Risperidone treatment for 60 days, weight gain in mice. The data set is classed as in vivo. To be noted: risperidone for 60 days, vs control.
Method: Shotgun metagenomic sequencing data (MiSeq, 2×250, high yield) from stool DNA were analyzed on the Anvi'o visualization platform. Bacterial genomes were refined to either genus or species level and ordered as slices within a ring by gene similarity (hierarchical clustering with a Hidden Markov Model).
Data set [3] has as its system gut microbiome. To be noted: risperidone; cited from earlier work.

Turning to `CCCCCCC/C=C/C(=O)N1C(O)=C(C(C)=O)C(=O)[C@H]1CC(C)C` [reutericyclin, (5R)-1-(2-decenoyl)-2-hydroxy-3-acetyl-5-isobutyl-Δ2-pyrroline-4-one], in data set [1], the “weight gain (body mass increase)” value is given as “prevents weight gain”. With `Cc1nc2n(c(=O)c1CCN1CCC(c3noc4cc(F)ccc34)CC1)CCCC2` [risperidone], the weight gain result in data set [2] was “statistically significant weight gain”. Also, the “growth of organisms under anaerobic conditions” value in data set [3] was “selectively suppressed growth of organisms under anaerobic conditions”.

The record behind these values is US11116748B2, “Compositions and methods for reducing weight gain” (THE MEDICAL COLLEGE OF WISCONSIN, INC., priority 2018, dated 2021).
